# From US20130065936A1, “MODULATION OF BIOACTIVE EPOXY-FATTY ACID LEVELS BY PHOSPHODIESTERASE INHIBITORS” (THE REGENTS OF THE UNIVERSITY OF CALIFORNIA, priority 2010, published 2013)
# Where two headings read alike, the source gives them in different places.
# Key:
# Sprague-Dawley rats [1] = experiment: Acute nociceptive responses in healthy rats, Hargreaves thermal withdrawal latency; format: in vivo, rat; conditions: healthy rats
# recombinant mouse sEH = target: T1, recombinant mouse sEH (Mus musculus, UniProt P34914); experiment: Potency on recombinant mouse sEH, fluorescent substrate; format: biochemical
# T1 construct: made in house
# T1 sequence (P34914 1-554): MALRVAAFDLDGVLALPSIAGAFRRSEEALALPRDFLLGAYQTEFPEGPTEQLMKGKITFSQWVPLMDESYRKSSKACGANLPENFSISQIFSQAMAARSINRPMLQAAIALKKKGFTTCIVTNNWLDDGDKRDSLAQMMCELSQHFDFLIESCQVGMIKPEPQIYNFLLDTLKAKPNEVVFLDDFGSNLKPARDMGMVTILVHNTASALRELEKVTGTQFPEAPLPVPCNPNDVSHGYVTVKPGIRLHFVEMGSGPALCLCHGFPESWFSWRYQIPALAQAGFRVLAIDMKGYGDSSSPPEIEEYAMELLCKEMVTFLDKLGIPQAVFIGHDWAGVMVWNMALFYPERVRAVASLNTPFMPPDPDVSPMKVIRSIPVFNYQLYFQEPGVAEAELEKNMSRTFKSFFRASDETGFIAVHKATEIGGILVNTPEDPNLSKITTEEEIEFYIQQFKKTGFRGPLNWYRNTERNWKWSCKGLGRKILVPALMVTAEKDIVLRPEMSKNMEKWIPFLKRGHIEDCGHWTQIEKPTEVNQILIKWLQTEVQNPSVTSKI
# Sprague-Dawley rats [2] = experiment: Open field activity; format: in vivo, rat; conditions: 1 h following administration
# Procedure: For the measurement of open field activity animals were placed in an acrylic chamber (40×40×20 cm length×width×height) divided into 100 cm^2 (10×10 cm) sections. The number of crossings were recorded when both hind paws crossed into a neighboring cell.
# [3] = test system: endogenous oxylipin sEH substrates and products in rat plasma; experiment: Oxylipin analysis in rat plasma after sEHI / PDE inhibitor administration (LC-ESI-MS/MS); format: in vivo; conditions: rat plasma 60 min after s.c., TPAU 10 mg/kg, rolipram 1 mg/kg;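 note: plasma from tail vein blood, oxylipins quantified by LC-ESI-MS/MS against deuterated internal standards following solid-phase extraction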
# recombinant rat sEH = target: T2, recombinant rat sEH (Rattus norvegicus, UniProt P80299); experiment: Potency on recombinant rat sEH, fluorescent substrate; format: biochemical
# T2 construct: made in house
# T2 sequence (P80299 1-554): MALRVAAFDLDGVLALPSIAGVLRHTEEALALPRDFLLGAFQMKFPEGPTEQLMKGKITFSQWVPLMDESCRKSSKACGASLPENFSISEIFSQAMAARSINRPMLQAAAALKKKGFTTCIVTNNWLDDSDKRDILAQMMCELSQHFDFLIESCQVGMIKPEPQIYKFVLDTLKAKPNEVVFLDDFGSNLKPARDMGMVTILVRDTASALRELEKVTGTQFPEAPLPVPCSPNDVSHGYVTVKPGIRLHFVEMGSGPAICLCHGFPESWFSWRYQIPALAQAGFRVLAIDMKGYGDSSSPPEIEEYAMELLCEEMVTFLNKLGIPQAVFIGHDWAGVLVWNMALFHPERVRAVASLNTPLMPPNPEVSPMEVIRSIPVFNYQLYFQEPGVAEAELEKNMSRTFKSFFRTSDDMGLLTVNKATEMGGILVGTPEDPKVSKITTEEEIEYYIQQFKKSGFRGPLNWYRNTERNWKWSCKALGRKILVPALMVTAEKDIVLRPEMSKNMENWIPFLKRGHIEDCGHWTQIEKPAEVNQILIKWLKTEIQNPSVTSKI
smiles,measurement,setting,value
COc1ccc(C2CNC(=O)C2)cc1OC1CCCC1 (stereo not shown) [Rolipram],thermal withdrawal latency,Sprague-Dawley rats [1]; 2 and 4 h after treatments,devoid of effect on withdrawal latency
same,"thermal withdrawal latency / pain related behavior, change from predrug baseline","Sprague-Dawley rats [1]; s.c., about 1 h after administration",effective in elevating pain thresholds
same,IC50,recombinant mouse sEH,> 10 µM
same,voluntary movement in an open-field chamber (motor depressant effect),Sprague-Dawley rats [2],significant and dose-dependent decrease in voluntary movement
same,8(9)-EpETE,[3],1.25 nM
same,8(9)-EpETrE,[3],9.63 nM
same,"8,9-DiHETE",[3],0.07 nM
same,"8,9-DiHETrE",[3],0.45 nM
same,9(10)-EpOME,[3],55.27 nM
same,"9,10-DiHOME",[3],24.32 nM
same,10(11)-EpDPE,[3],7.51 nM
same,"10,11-DiHDPE",[3],0.33 nM
same,11(12)-EpETE,[3],0.93 nM
same,11(12)-EpETrE,[3],13.15 nM
same,"11,12-DiHETE",[3],0.20 nM
same,"11,12-DiHETrE",[3],1.67 nM
same,12(13)-EpOME,[3],36.32 nM
same,"12,13-DiHOME",[3],42.01 nM
same,13(14)-EpDPE,[3],3.88 nM
same,"13,14-DiHDPE",[3],0.37 nM
same,14(15)-EpETE,[3],0.84 nM
same,14(15)-EpETrE,[3],8.52 nM
same,"14,15-DiHETE",[3],0.28 nM
same,"14,15-DiHETrE",[3],1.74 nM
same,16(17)-EpDPE,[3],3.93 nM
same,"16,17-DiHDPE",[3],0.72 nM
same,17(18)-EpETE,[3],1.76 nM
same,"17,18-DiHETE",[3],0.77 nM
same,19(20)-EpDPE,[3],7.46 nM
same,"19,20-DiHDPE",[3],2.13 nM
same,total Dihydroxyeicosanoid,[3],75.1 nM
same,total Epoxyeicosanoid,[3],150.4 nM
same,12(13)-EpOME,[3]; listed as rolipram,no increase
same,"12,13-DiHOME",[3]; listed as rolipram,significant elevation
same,inhibitory activity in the sEH assay,"recombinant rat sEH; 10 and 100 μM, recombinant rat enzyme",No inhibition was observed
same,IC50,recombinant rat sEH; read-out: IC50 on recombinant rat sEH,> 100 µM
same,IC50,"recombinant rat sEH; recombinant sEH, read-out: IC50 Rat",> 10 µM
